Laboratory results published in ChEMBL document CHEMBL1157284, “Role of glutamate and dopamine receptors in the psychopharmacological profile of the indole alkaloid psychollatine” (2006).
Activity calls are given as the source filed them. The rule behind the calls is not given here.

Key:
Mus musculus [1] = assay: Protective effect against amphetamine-induced lethality in mouse at 4 mg/kg, ip administered 30 mins prior to amphetamine challenge measured after 24 hrs; format: functional, organism-based; set-up: dose 4 mg/kg
Mus musculus [2] = assay: Inhibition of apomorphine-induced climbing behavior in mouse at 0.2 mg/kg, ip administered 30 mins prior to apomorphine challenge; format: functional, organism-based; set-up: dose 0.2 mg/kg
Mus musculus [3] = assay: Anticonvulsant activity against NMDA-induced seizures in mouse assessed as seizure latency at 0.3 mg/kg, ip administered 30 mins prior to NMDA challenge; format: functional; settings: route intraperitoneal
Mus musculus [4] = assay: Inhibition of apomorphine-induced climbing behavior in mouse at 10 mg/kg, ip administered 30 mins prior to apomorphine challenge; format: functional, organism-based; set-up: dose 10 mg/kg
Mus musculus [5] = assay: Decrease in spontaneous locomotor activity in mouse at 7.5 mg/kg; format: functional, organism-based; set-up: dose 7.5 mg/kg
Mus musculus [6] = assay: Protective effect against amphetamine-induced lethality in mouse at 3 mg/kg, ip administered 30 mins prior to amphetamine challenge measured after 24 hrs; format: functional, organism-based; set-up: dose 3 mg/kg
Mus musculus [7] = assay: Protective effect against amphetamine-induced lethality in mouse at 30 mg/kg, ip administered 30 mins prior to amphetamine challenge measured after 24 hrs; format: functional, organism-based; set-up: dose 30 mg/kg
Mus musculus [8] = assay: Antipsychotic activity against MK-801-induced hyperlocomotion in mouse at 100 mg/kg administered 30 mins prior to MK-801 challenge measured after 30 mins; format: functional, organism-based; set-up: dose 100 mg/kg
Mus musculus [9] = assay: Protective effect against amphetamine-induced lethality in mouse at 10 mg/kg, ip administered 30 mins prior to amphetamine challenge measured after 24 hrs; format: functional, organism-based; set-up: dose 10 mg/kg
Mus musculus [10] = assay: Anticonvulsant activity against NMDA-induced seizures in mouse assessed as seizure latency at 100 mg/kg, ip administered 30 mins prior to NMDA challenge; format: functional; settings: route intraperitoneal
Mus musculus [11] = assay: Protective effect against amphetamine-induced lethality in mouse at 100 mg/kg, ip administered 30 mins prior to amphetamine challenge measured after 24 hrs; format: functional, organism-based; set-up: dose 100 mg/kg
Mus musculus [12] = assay: Antipsychotic activity against MK-801-induced hyperlocomotion in mouse at 10 mg/kg administered 30 mins prior to MK-801 challenge measured after 30 mins; format: functional, organism-based; set-up: dose 10 mg/kg
Mus musculus [13] = assay: Decrease in spontaneous locomotor activity in mouse at 10 mg/kg; format: functional, organism-based; set-up: dose 10 mg/kg
Mus musculus [14] = assay: Anticonvulsant activity against NMDA-induced seizures in mouse assessed as seizure latency at 50 mg/kg, ip administered 30 mins prior to NMDA challenge; format: functional; settings: route intraperitoneal
Mus musculus [15] = assay: Anticonvulsant activity against NMDA-induced seizures in mouse assessed as seizure latency at 75 mg/kg, ip administered 30 mins prior to NMDA challenge; format: functional; settings: route intraperitoneal
Mus musculus [16] = assay: Decrease in spontaneous locomotor activity in mouse at 100 mg/kg; format: functional, organism-based; set-up: dose 100 mg/kg
Mus musculus [17] = assay: Antipsychotic activity against MK-801-induced hyperlocomotion in mouse at 7.5 mg/kg administered 30 mins prior to MK-801 challenge measured after 30 mins; format: functional, organism-based; set-up: dose 7.5 mg/kg

Question: For CN(C)CCCN1c2ccccc2Sc2ccc(Cl)cc21, which Activity (Mus musculus [1]) is on record?
Answer: Active

Question: For CN1C(=O)CN=C(c2ccccc2)c2cc(Cl)ccc21, which Activity (Mus musculus [1]) is on record?
Answer: inactive

Question: Which results are given for C[C@]12N[C@H](Cc3ccccc31)c1ccccc12.O=C(O)/C=C\C(=O)O [DIZOCILPINE MALEATE]?
Answer: Activity (Mus musculus [2]): Active; Activity (Mus musculus [3]): 360 s

Question: For COC(=O)C1=CO[C@@H](O[C@H]2O[C@H](CO)[C@@H](O)[C@H](O)[C@H]2O)[C@@H]2C([C@@H]3NCCc4c3[nH]c3ccccc43)=CC[C@H]12 [PSYCHOLLATINE], which Activity (Mus musculus [4]) is on record?
Answer: Active

Question: What about the Activity (Mus musculus [5]) of the same compound?
Answer: inactive

Question: And the Activity (Mus musculus [6])?
Answer: Active

Question: What about the Activity (Mus musculus [7]) of the same compound?
Answer: inactive

Question: And the Activity (Mus musculus [8])?
Answer: Active

Question: And the Activity (Mus musculus [9])?
Answer: Active

Question: And the Activity (Mus musculus [10])?
Answer: 857.14 s

Question: And the Activity (Mus musculus [11])?
Answer: inactive

Question: And the Activity (Mus musculus [12])?
Answer: Active

Question: And the Activity (Mus musculus [13])?
Answer: inactive

Question: What about the Activity (Mus musculus [14]) of the same compound?
Answer: 850 s

Question: And the Activity (Mus musculus [15])?
Answer: 1020 s

Question: What about the Activity (Mus musculus [16]) of the same compound?
Answer: Active

Question: And the Activity (Mus musculus [17])?
Answer: Active
